# Measurements published in a compilation of properties of binary mixtures (doi:10.1021/acs.iecr.6b02875).
# Assay: xn = mol fraction of the nth substance listed
# Conditions: 101 kPa; for electrical conductivity: 298.15 K
compound,measurement,setting,value
CCCOCCn1cc[n+](C)c1.O=S(=O)([N-]S(=O)(=O)C(F)(F)F)C(F)(F)F + O,viscosity,"293 K, x1 = 0.8308",48 mPa·s
same,electrical conductivity,x1 = 0.8308,0.404 S/m
same,viscosity,"303 K, x1 = 0.8308",31.6 mPa·s
same,viscosity,"313 K, x1 = 0.8308",21.9 mPa·s
same,viscosity,"323 K, x1 = 0.8308",15.9 mPa·s
same,viscosity,"333 K, x1 = 0.8308",12 mPa·s
same,viscosity,"343 K, x1 = 0.8308",9.2 mPa·s
same,viscosity,"353 K, x1 = 0.8308",7.3 mPa·s
CCOCC[n+]1ccn(C)c1.O=S(=O)([N-]S(=O)(=O)C(F)(F)F)C(F)(F)F + O,viscosity,"293 K, x1 = 0.8421",42.4 mPa·s
same,electrical conductivity,x1 = 0.8421,0.499 S/m
same,viscosity,"303 K, x1 = 0.8421",27.8 mPa·s
same,viscosity,"313 K, x1 = 0.8421",19.5 mPa·s
same,viscosity,"323 K, x1 = 0.8421",14.2 mPa·s
same,viscosity,"333 K, x1 = 0.8421",10.7 mPa·s
same,viscosity,"343 K, x1 = 0.8421",8.3 mPa·s
same,viscosity,"353 K, x1 = 0.8421",6.5 mPa·s
CCOCn1cc[n+](C)c1.O=S(=O)([N-]S(=O)(=O)C(F)(F)F)C(F)(F)F + O,viscosity,"283 K, x1 = 0.8413",81.6 mPa·s
same,viscosity,"293 K, x1 = 0.8413",48.9 mPa·s
same,viscosity,"298.1 K, x1 = 0.8413",38.8 mPa·s
same,electrical conductivity,x1 = 0.8413,0.504 S/m
same,viscosity,"303 K, x1 = 0.8413",31.4 mPa·s
same,viscosity,"313 K, x1 = 0.8413",21.6 mPa·s
same,viscosity,"323 K, x1 = 0.8413",15.7 mPa·s
same,viscosity,"343 K, x1 = 0.8413",9.1 mPa·s
same,viscosity,"353 K, x1 = 0.8413",7.2 mPa·s
COCCCn1cc[n+](C)c1.O=S(=O)([N-]S(=O)(=O)C(F)(F)F)C(F)(F)F + O,viscosity,"293 K, x1 = 0.8318",49.6 mPa·s
same,viscosity,"298.1 K, x1 = 0.8318",39.7 mPa·s
same,electrical conductivity,x1 = 0.8318,0.44 S/m
same,viscosity,"303 K, x1 = 0.8318",32.1 mPa·s
same,viscosity,"313 K, x1 = 0.8318",22.1 mPa·s
same,viscosity,"323 K, x1 = 0.8318",15.9 mPa·s
same,viscosity,"333 K, x1 = 0.8318",11.8 mPa·s
same,viscosity,"343 K, x1 = 0.8318",9.1 mPa·s
same,viscosity,"353 K, x1 = 0.8318",7.1 mPa·s
COCC[n+]1ccn(C)c1.O=S(=O)([N-]S(=O)(=O)C(F)(F)F)C(F)(F)F + O,viscosity,"293 K, x1 = 0.838",41.5 mPa·s
same,viscosity,"298.1 K, x1 = 0.838",33.3 mPa·s
same,viscosity,"303 K, x1 = 0.838",27.4 mPa·s
same,viscosity,"313 K, x1 = 0.838",19.4 mPa·s
same,viscosity,"323 K, x1 = 0.838",14.2 mPa·s
same,viscosity,"333 K, x1 = 0.838",10.7 mPa·s
same,viscosity,"343 K, x1 = 0.838",8.4 mPa·s
same,viscosity,"353 K, x1 = 0.838",6.7 mPa·s
COC[n+]1ccccc1.O=S(=O)([N-]S(=O)(=O)C(F)(F)F)C(F)(F)F + O,viscosity,"283 K, x1 = 0.8484",75.6 mPa·s
same,viscosity,"293 K, x1 = 0.8484",46.3 mPa·s
same,viscosity,"313 K, x1 = 0.8484",21.7 mPa·s
same,viscosity,"323 K, x1 = 0.8484",15.8 mPa·s
same,viscosity,"343 K, x1 = 0.8484",9.4 mPa·s
same,viscosity,"353 K, x1 = 0.8484",7.5 mPa·s
COC[n+]1ccn(C)c1.O=S(=O)([N-]S(=O)(=O)C(F)(F)F)C(F)(F)F + O,viscosity,"293 K, x1 = 0.8281",48.3 mPa·s
same,viscosity,"298.1 K, x1 = 0.8281",38.4 mPa·s
same,electrical conductivity,x1 = 0.8281,0.594 S/m
same,viscosity,"303 K, x1 = 0.8281",31.1 mPa·s
same,viscosity,"313 K, x1 = 0.8281",21.4 mPa·s
same,viscosity,"323 K, x1 = 0.8281",15.4 mPa·s
same,viscosity,"333 K, x1 = 0.8281",11.4 mPa·s
same,viscosity,"343 K, x1 = 0.8281",8.8 mPa·s
same,viscosity,"353 K, x1 = 0.8281",7 mPa·s
